From ChEMBL document CHEMBL1201862, “PubChem BioAssay data set” (2004)
Calls of active or inactive are those of the source.

How the values were obtained:
[1] = Luminescent dose response cell-based high throughput screening assay for inhibitors of the Janus kinase 2 mutant JAK2V617F. [Related pubchem assays: 1446 (Primary screen.), 1521 (Confirmation assay.), 1486 (Counter screen.)]; format: functional
[2] = Luminescence Cell-Based Dose Confirmation HTS to Identify Activators of 5'UTR Stem-Loop Driven Alpha-Synuclein mRNA Translation in H4 Neuroglioblastoma Cells. [Related pubchem assays: 1829 (Project Summary), 1814 (Primary HTS)]; format: functional
[3] = Luminescence Cell-Based Dose Response HTS to Identify Activators of Luciferase Translation or Activity in H4 […] Cells. [Related pubchem assays: 1829 (Project Summary), 1814 (Primary HTS)]; format: functional
[4] = system: H4; test: Luminescence Cell-Based Dose Response HTS to Identify Activators of 5'UTR Stem-Loop Driven Prion Protein mRNA Translation in H4 Neuroglioblastoma Cells. [Related pubchem assays: 1829 (Project Summary), 1814 (Primary HTS)]; format: functional; conditions: Homo sapiens
[5] = cytotoxicity in HEK-293T cells, dose response, cytotoxicity control for TCR NF-kB inhibitor project, luminescence, T-cell screen hits (AID 489026); format: functional, cell-based;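 further: cells exposed to compound about 14 hours before the viability readout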
[6] = target: T1, Mucolipin-3 (Homo sapiens, UniProt Q8TDD5); test: Dose response cell-based high-throughput screening assay for agonists of the transient receptor potential channel ML3 (TRPML3). [Related pubchem assays: 1526, 1424, 1448 ]; format: functional
T1 sequence (Q8TDD5 whole entry): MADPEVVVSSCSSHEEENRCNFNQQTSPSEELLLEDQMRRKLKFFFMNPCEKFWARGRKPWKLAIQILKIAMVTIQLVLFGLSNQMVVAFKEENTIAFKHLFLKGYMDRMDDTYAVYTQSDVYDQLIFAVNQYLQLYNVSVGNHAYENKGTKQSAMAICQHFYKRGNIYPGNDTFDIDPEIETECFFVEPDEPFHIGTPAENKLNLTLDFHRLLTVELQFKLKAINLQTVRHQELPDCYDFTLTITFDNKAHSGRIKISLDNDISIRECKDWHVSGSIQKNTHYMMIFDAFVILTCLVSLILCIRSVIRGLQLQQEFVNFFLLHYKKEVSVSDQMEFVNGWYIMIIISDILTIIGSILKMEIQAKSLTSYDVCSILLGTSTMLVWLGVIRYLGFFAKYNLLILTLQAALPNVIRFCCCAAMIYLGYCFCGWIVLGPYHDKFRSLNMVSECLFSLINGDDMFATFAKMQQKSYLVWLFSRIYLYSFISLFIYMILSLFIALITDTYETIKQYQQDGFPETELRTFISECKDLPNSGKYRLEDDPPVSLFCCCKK

[7] = target: Ion channel NompC (Danio rerio, UniProt Q7T1G6); test: Fluorescence counterscreen assay for TRPML3 agonists: dose response cell-based high-throughput screening assay to identify agonists of the transient receptor potential channel N1 (TRPN1). [Related pubchem assays: 1526, 1424, 1448 ]; format: functional
[8] = Luminescence Cell-Based Dose Retest to Confirm Inhibitors of Cancer Stem Cells. [Related pubchem assays (depositor defined):AID2717, AID2721]; format: functional; conditions: Homo sapiens
[9] = Fluorescence-based cell-based high throughput dose response assay for inhibitors of the interaction of nucleotide-binding oligomerization domain containing 2 (NOD2) and the receptor-interacting serine-threonine kinase 2 (RIPK2).; format: functional; conditions: Homo sapiens
[10] = NIH-3T3 fibroblast cytotoxicity, dose response, cytotoxicity control, cell-based, fluorescence, Alamar Blue, secondary assay (AID 2327); format: functional;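 further: NIH-3T3 mouse fibroblasts cultured with fluconazole at 8 µg/mL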
[11] = C. albicans growth with fluconazole, confirmation, fluorescence, retest (AID 2467); format: functional, cell-based
[12] = target: Luciferin 4-monooxygenase (Photinus pyralis, UniProt P08659); test: firefly luciferase enzyme inhibitors, dose response, biochemical, luminescence (AID 1891)
[13] = Luminescence Cell-Based Dose Confirmation HTS to Identify Inhibitors of Platelet Dense Granule Release. [Related pubchem assays: 1663 (Primary HTS), 1678 (Summary of Project)]; format: functional
[14] = target: Heat shock protein HSP 90-alpha (Homo sapiens, UniProt P07900); test: Luminescence-based dose response biochemical high throughput screening assay for inhibitors of the Heat Shock Protein 90 (HSP90). [Related pubchem assays: 1831 (Summary AID.), 1846 (Confirmation screen.), 1789 (Primary screen.)]
[15] = system: INS1; test: beta cell apoptosis inhibitors, cytokine rescue, dose response, luminescence, retest (AID 449756); format: functional, cell-based; conditions: Rattus norvegicus;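 further: cell death triggered by IL-1 beta plus TNF-alpha plus IFN-gamma mixture; protective hits raise ATP signal compared with cytokine alone wells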
[16] = microbe, parasite or virus in culture; format: functional; conditions: Mycobacterium tuberculosis
[17] = target: Major prion protein (Homo sapiens, UniProt P04156); format: functional, cell-based
[18] = cells
[19] = target: E3 ubiquitin-protein ligase Mdm2 (Homo sapiens, UniProt Q00987); test: enhancers of MDM2-luciferase reporter signal, concentration-effect titration, project on inhibitors of MDM2 ubiquitin ligase, cellular assay, luminescent readout, 384-well plate format (AID 1394); format: functional;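 further: MDM2 E3 inhibitors raise luminescence so EC50 is for signal enhancement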
[20] = target: Kallikrein-7 (Homo sapiens, UniProt P49862); test: Fluorescence Intensity-based biochemical primary high throughput dose response assay to identify activators of kallikrein-7 (K7) zymogen.
[21] = target: Mitogen-activated protein kinase 10 (Homo sapiens, UniProt P53779); test: Dose response biochemical screening assay for inhibitors of c-Jun N-Terminal Kinase 3 (JNK3). [Related pubchem assays: 746 ]
[22] = target: T2, Estrogen receptor beta (Homo sapiens, UniProt Q92731);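 further: recombinant ER-beta bound to coactivator SRC1 peptide in presence of estradiol agonist; inhibitors block coactivator peptide binding and lower the FRET signal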
[23] = target: T2, Estrogen receptor beta; test: ERβ–SRC-3 coactivator interaction inhibitors, confirmation, orthogonal assay, biochemical, ELISA, streptavidin-HRP readout (AID 1060)

For `O=C1C=CCC(/C=C/c2ccccc2)O1` (stereo unspecified), the IC50 [1] was 1.31 µM (active), the EC50 [2] was > 120 µM (not active) and the EC50 [3] was > 120 µM (not active). The EC50 [4] was 98.3 µM (active) and the IC50 [5] was > 80 µM (inactive).

In the case of `O=S(=O)(c1cnc(Cl)c(Br)c1)N1CCc2ccccc21`, the IC50 [1] is reported as 4.22 µM (active), the EC50 [6] is reported as 7.71 µM (active) and the EC50 [7] is reported as > 29.9 µM (not active). The AC50 [8] was 12.1 µM (inconclusive) and the IC50 [9] was 6.35 µM (active).

For `CCCCOc1ccc(-c2cc(C(=O)NN=C(S)NCC)c3ccccc3n2)cc1`, the EC50 [10] was 16.1 µM (inconclusive), the EC50 [11] was 1.8 µM (active) and the EC50 [12] was 0.516 µM (active). The EC50 [13] was < 0.701 µM (active), the IC50 [14] was 2.45 µM (active) and the AC50 [15] was 3.2 µM (active).

For `CC1CCC(NC(=O)c2cc3c(s2)CCCC3)CC1` (stereo unspecified), the CC50 [16] was > 40 µM (active), the IC50 [17] was 4.39 µM (active) and the IC50 [18] was > 138 µM (inactive).

In the case of `COCCNc1nc2nonc2nc1N(C)Cc1cccc2cnccc12`, the EC50 [19] is reported as 0.22 µM (not active).

In the case of `Cc1nn(CCc2nnn[nH]2)c2nc(C(F)(F)F)cc(C(F)(F)F)c12`, the EC50 [20] is reported as > 69.5 µM (inactive).

For `CCOc1cc(C2NC(=O)NC(C)=C2C(=O)OCc2ccccc2)ccc1O` (stereo unspecified), the IC50 [21] was 34.6 µM (not active).

With `COc1cc2cc(Br)cc(Br)c2nc1C` the IC50 [17] was 4.51 µM (active) and the IC50 [18] was > 138 µM (inactive).

In the case of `Cc1ccc(NC(=O)COc2ccc(-n3cnnn3)cc2)cc1C`, the IC50 [22] is reported as > 50 µM (not active) and the IC50 [23] is reported as < 0.023 µM (not active).
